# How the values were obtained:
# [1] = system: high fat diet-induced obese mice; test: tissue specific 3H-2-deoxy-D-glucose uptake after oral glucose gavage; type: in vivo, mouse; details: day 5, vs saline
# Method: On the fifth day of EOS or PBS treatment 3H-2-deoxy-D-glucose (2DG; 10 uCi/mouse; PerkinElmer, Waltham, Mass.) was given to 4-hour fasted individually housed mice. Studies were performed in 2 cohorts on 2 different days. 2DG was given by oral gavage in a solution of glucose (2.5 g/kg) and each mouse received the same dose based off the average body weight for their cohort (0.1 mL/10 g body weight). Mice were anesthetized by isoflurane and sacrificed by cervical dislocation 45 minutes following oral gavage. Liver, soleus, quadriceps femoris, and gonadal white adipose tissue were collected, weighed, and dissolved overnight in 1N NaOH (0.5 mL/50 mg tissue) at 55° C. on a shaker plate. 0.5 mL of dissolved tissue was added to 5 mL of scintillation cocktail (Ultima Gold, PerkinElmer, Waltham, Mass.) and disintegrations per minute (DPM) were measured using a LS 6500 Multipurpose Scintillation Counter (Beckman Coulter, Brea, Calif.). DPM/g tissue weight was determined for each tissue and normalized based on a correction factor calculated by the average total DPM/g for all tissues divided by the total DPM/g for all tissues of the individual mouse.
# diet-induced obese mice = test: body composition by EchoMRI in EOS treated mice; type: in vivo, mouse; details: 3 g/L in drinking water, day 7 vs day 0
# Method: Body composition was assessed in diet-induced obese mice on day 0 and 7 days after continuous provision of EOS in the drinking water (3 g/L) using an EchoMRI 900 with A10 insert for mice. Calibration was performed daily and had the water stage set to on.
structure (smiles),measurement,setting,value
"NCCOS(=O)(=O)O [EOS, ethanolamine-O-sulfate]",2DG clearance by gonadal white adipose tissue,[1],did not affect
same,2DG clearance by the quadriceps femoris,[1],did not affect
same,increase of 2DG uptake by the soleus,[1],22%
same,decrease of fat mass,diet-induced obese mice,16.27%
same,decrease of lean mass,diet-induced obese mice,6.15%
same,decrease of total body mass,diet-induced obese mice,10%

# From patent publication US20230128194A1, “METHODS AND COMPOSITIONS TO ALTER HEPATIC GABA RELEASE TO TREAT OBESITY-RELATED CONDITIONS” (ARIZONA BOARD OF REGENTS ON BEHALF OF THE UNIVERSITY OF …, priority 2017, published 2023)
